Laboratory results taken from US10227357B2, “Compounds and methods for kinase modulation, and indications therefor” (Plexxikon Inc., priority 2012, dated 2019).

Tests used:
c-kit kinase = molecular target: T1, c-kit kinase (Homo sapiens, UniProt P10721); test: c-Kit biochemical assay, AlphaScreen, 10 μM ATP; conditions: c-kit biochemical inhibitory activity; read-out: Biochemical activity (IC50 μM) Kit
T1 construct: The c-kit (or kinase domain thereof) is an active kinase in AlphaScreen; poly-Histidine tag (in-house protein only) (cleaved yes); host or cells: E. coli BL21(DE3)RIL, co-expressed with PTP1B
T1 sequence (P10721 26-976): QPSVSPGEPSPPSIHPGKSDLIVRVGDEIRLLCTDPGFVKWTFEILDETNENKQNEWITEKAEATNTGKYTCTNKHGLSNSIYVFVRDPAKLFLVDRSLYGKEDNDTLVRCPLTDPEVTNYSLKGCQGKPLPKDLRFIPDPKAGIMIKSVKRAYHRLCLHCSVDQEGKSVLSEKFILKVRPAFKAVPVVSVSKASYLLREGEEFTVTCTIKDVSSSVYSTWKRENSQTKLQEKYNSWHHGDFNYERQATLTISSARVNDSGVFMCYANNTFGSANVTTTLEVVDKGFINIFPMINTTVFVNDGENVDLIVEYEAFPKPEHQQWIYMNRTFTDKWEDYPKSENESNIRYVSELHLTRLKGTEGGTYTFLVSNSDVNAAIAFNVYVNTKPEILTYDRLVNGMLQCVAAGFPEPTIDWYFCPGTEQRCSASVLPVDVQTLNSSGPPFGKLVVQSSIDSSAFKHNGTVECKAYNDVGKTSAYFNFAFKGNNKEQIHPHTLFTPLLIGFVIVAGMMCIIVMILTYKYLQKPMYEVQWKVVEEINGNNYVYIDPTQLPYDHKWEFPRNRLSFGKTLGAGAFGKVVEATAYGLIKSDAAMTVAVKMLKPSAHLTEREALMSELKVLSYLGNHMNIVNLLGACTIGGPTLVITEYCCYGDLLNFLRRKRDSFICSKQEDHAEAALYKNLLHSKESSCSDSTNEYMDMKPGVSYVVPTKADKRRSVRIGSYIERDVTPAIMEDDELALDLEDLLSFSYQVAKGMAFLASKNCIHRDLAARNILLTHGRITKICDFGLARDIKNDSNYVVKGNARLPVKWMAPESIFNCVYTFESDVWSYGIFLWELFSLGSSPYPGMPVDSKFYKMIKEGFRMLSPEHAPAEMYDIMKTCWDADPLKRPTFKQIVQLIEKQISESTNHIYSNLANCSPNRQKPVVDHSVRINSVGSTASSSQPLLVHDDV
Summary of the method: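 His-tagged c-Kit expressed in E. coli with co-expressed PTP1B (dephosphorylated), tag removed; 0.1 ng per reaction with biotinylated-peptide substrate in 50 mM HEPES pH 7.2, 5 mM MgCl2, 5 mM MnCl2, 5% DMSO, 10 μM ATP, 1 h at room temperature. Phosphorylation detected by AlphaScreen (streptavidin donor, PY20 acceptor beads); IC50 from 8-point 1:3 dilution series.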

c-kit mutant D816V = molecular target: T2, c-kit mutant D816V (Homo sapiens, UniProt P10721, D816V/DEL694-753); test: c-Kit mutant D816V biochemical assay, AlphaScreen; conditions: c-kit D816V biochemical inhibitory activity; read-out: Biochemical activity (IC50 μM) Kit D816V
T2 construct: residues 551-934, kinase insertion domain residues 694-753 deleted; 6x-histidine (N); made in house; host or cells: E. coli Arctic Express (DE3) RIL (Stratagene)
T2 sequence (P10721 with tags, fused parts or gaps DEL694-753/D816V): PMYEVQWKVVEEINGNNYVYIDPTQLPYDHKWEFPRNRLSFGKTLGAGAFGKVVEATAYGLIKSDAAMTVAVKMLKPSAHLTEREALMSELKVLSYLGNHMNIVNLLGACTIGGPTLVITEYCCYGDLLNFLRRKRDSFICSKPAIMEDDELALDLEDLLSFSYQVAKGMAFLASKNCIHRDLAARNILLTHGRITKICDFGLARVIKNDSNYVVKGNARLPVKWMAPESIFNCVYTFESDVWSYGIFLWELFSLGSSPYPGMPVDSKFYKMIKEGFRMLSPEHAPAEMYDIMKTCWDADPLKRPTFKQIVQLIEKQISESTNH
Summary of the method: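 Eight-point, threefold compound series incubated 30 min at room temperature with E. coli-produced D816V kinase, 10 μM ATP, Mg2+/Mn2+ HEPES buffer pH 7.2 and 5% DMSO. After EDTA stop, streptavidin and anti-phosphotyrosine (PY20) AlphaScreen beads gave the read-out, and IC50 was fitted from the concentration–signal curve.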

| Compound | IC50 (c-kit kinase) | IC50 (c-kit mutant D816V) |
| --- | --- | --- |
| COc1cc(-c2cc3c(N4CCN(C(=O)Nc5ccc(OC(F)(F)F)cc5)CC4)ncnc3[nH]2)ccn1 [P-0117, 4-[6-(2-methoxy-4-pyridyl)-7H-pyrrolo[2,3-d]pyrimidin-4-yl]-N-[4-(trifluoromethoxy)phenyl]piperazine-1-carboxamide] | 0.0001 to 1 µM | 10 to 200 µM |
| O=C(Nc1ccc(OC(F)(F)F)cc1)N1CCN(c2ncnc3[nH]c(-c4ccc(F)cc4)cc23)CC1 [P-0133, 4-[6-(4-fluorophenyl)-7H-pyrrolo[2,3-d]pyrimidin-4-yl]-N-[4-(trifluoromethoxy)phenyl]piperazine-1-carboxamide] | 0.0001 to 1 µM | 1 to 10 µM |
| Cc1cc2ncnc(-c3ccc(NS(C)(=O)=O)cc3)c2s1 [P-0622, N-[4-(6-methylthieno[3,2-d]pyrimidin-4-yl)phenyl]methanesulfonamide] | 10 to 200 µM | 1 to 10 µM |
| Fc1ccc(-c2cc3c(N4CCN(c5nc6ccccc6[nH]5)CC4)ncnc3[nH]2)cc1 [P-0011, 4-[4-(1H-benzimidazol-2-yl)piperazin-1-yl]-6-(4-fluorophenyl)-7H-pyrrolo[2,3-d]pyrimidine] | 10 to 200 µM | 0.0001 to 1 µM |
| COc1cccc([C@H](C)NC(=O)N2CC3CCC2CN3c2ncnc3cc(-c4ccc(F)cc4)sc23)c1 (stereo partly drawn) [P-0566, 5-[6-(4-fluorophenyl)thieno[3,2-d]pyrimidin-4-yl]-N-[(1S)-1-(3-methoxyphenyl)ethyl]-2,5-diazabicyclo[2.2.2]octane-2-carboxamide] | 10 to 200 µM | 1 to 10 µM |
| Cc1ccc(-c2cc3c(N4CCN(C(=O)Nc5ccc(OC(F)(F)F)cc5)CC4)ncnc3[nH]2)cn1 [P-0115, 4-[6-(6-methyl-3-pyridyl)-7H-pyrrolo[2,3-d]pyrimidin-4-yl]-N-[4-(trifluoromethoxy)phenyl]piperazine-1-carboxamide] | 0.0001 to 1 µM | 10 to 200 µM |
| Cn1cc(-c2cc3c(N4CCC(NS(=O)(=O)c5cc(Cl)cs5)CC4)ncnc3[nH]2)cn1 [P-0462, 4-chloro-N-[1-[6-(1-methylpyrazol-4-yl)-7H-pyrrolo[2,3-d]pyrimidin-4-yl]-4-piperidyl]thiophene-2-sulfonamide] | 1 to 10 µM | 0.0001 to 1 µM |
| Cc1ccc(S(=O)(=O)Nc2ccc(-c3ncnc4[nH]c(C)cc34)cc2)cn1 [P-0301, 6-methyl-N-[4-(6-methyl-7H-pyrrolo[2,3-d]pyrimidin-4-yl)phenyl]pyridine-3-sulfonamide] | 1 to 10 µM | 0.0001 to 1 µM |
| Cc1ccc(S(=O)(=O)Nc2ccc(-c3ncnc4cc(C)sc34)cc2)cc1 [P-0623, 4-methyl-N-[4-(6-methylthieno[3,2-d]pyrimidin-4-yl)phenyl]benzenesulfonamide] | 1 to 10 µM | 0.0001 to 1 µM |
| COc1ccc(CNS(=O)(=O)c2ccc(-c3ncnc4[nH]c(-c5ccc(F)cc5)cc34)cc2)cc1 [P-0423, 4-[6-(4-fluorophenyl)-7H-pyrrolo[2,3-d]pyrimidin-4-yl]-N-[(4-methoxyphenyl)methyl]benzenesulfonamide] | 10 to 200 µM | 10 to 200 µM |
| O=C(NCc1ccc(F)cc1)N1CCN(c2ncnc3ccsc23)CC1 [P-0638, N-[(4-fluorophenyl)methyl]-4-thieno[3,2-d]pyrimidin-4-yl-piperazine-1-carboxamide] | 10 to 200 µM | 10 to 200 µM |
| Cn1cc(-c2cc3c(N4CCC(NS(=O)(=O)c5cc6ccccc6s5)CC4)ncnc3[nH]2)cn1 [P-0470, N-[1-[6-(1-methylpyrazol-4-yl)-7H-pyrrolo[2,3-d]pyrimidin-4-yl]-4-piperidyl]benzothiophene-2-sulfonamide] | 0.0001 to 1 µM | 0.0001 to 1 µM |
| COc1ccc(S(=O)(=O)Nc2ccc(-c3ncnc4[nH]c(-c5ccc(F)cc5)cc34)cc2F)cc1 [P-0409, N-[2-fluoro-4-[6-(4-fluorophenyl)-7H-pyrrolo[2,3-d]pyrimidin-4-yl]phenyl]-4-methoxy-benzenesulfonamide] | 10 to 200 µM | 1 to 10 µM |
| Cc1cc2c(-c3ccc(NS(=O)(=O)c4ccc(Cl)cc4F)c(F)c3)ncnc2[nH]1 [P-0361, 4-chloro-2-fluoro-N-[2-fluoro-4-(6-methyl-7H-pyrrolo[2,3-d]pyrimidin-4-yl)phenyl]benzenesulfonamide] | 0.0001 to 1 µM | 1 to 10 µM |
| Cc1n[nH]c2ncnc(-c3ccc(NS(=O)(=O)c4cccc(Cl)c4)cc3)c12 [P-0443, 3-chloro-N-[4-(3-methyl-1H-pyrazolo[3,4-d]pyrimidin-4-yl)phenyl]benzenesulfonamide] | 1 to 10 µM | 0.0001 to 1 µM |
| CN(C)c1ccc(NC(=O)N2CCN(c3ncnc4[nH]c(C#CC5CC5)cc34)CC2)cc1 [P-0052, 4-[6-(2-cyclopropylethynyl)-7H-pyrrolo[2,3-d]pyrimidin-4-yl]-N-(4-dimethylaminophenyl)piperazine-1-carboxamide] | 1 to 10 µM | 10 to 200 µM |
| C[C@H](NC(=O)N1CCN(c2ncnc3cc(C4=CC(C)(C)NC(C)(C)C4)sc23)CC1)c1cccc(Cl)c1 [P-0569, N-[(1S)-1-(3-chlorophenyl)ethyl]-4-[6-(2,2,6,6-tetramethyl-1,3-dihydropyridin-4-yl)thieno[3,2-d]pyrimidin-4-yl]piperazine-1-carboxamide] | 10 to 200 µM | 0.0001 to 1 µM |
| COc1cccc([C@H](C)NC(=O)N2CCN(c3ncnc4[nH]c(C#CC5CC5)cc34)CC2)c1 [P-0047, 4-[6-(2-cyclopropylethynyl)-7H-pyrrolo[2,3-d]pyrimidin-4-yl]-N-[(1S)-1-(3-methoxyphenyl)ethyl]piperazine-1-carboxamide] | 1 to 10 µM | 0.0001 to 1 µM |
| C[C@H](NC(=O)N1CCN(c2ncnc3[nH]c(-c4ccc(C#N)cc4)cc23)C[C@H]1C)c1cccc(Cl)c1 [P-0694, (2R)-N-[(1S)-1-(3-chlorophenyl)ethyl]-4-[6-(4-cyanophenyl)-7H-pyrrolo[2,3-d]pyrimidin-4-yl]-2-methyl-piperazine-1-carboxamide] | 10 to 200 µM | 0.0001 to 1 µM |
| CS(=O)(=O)Nc1ccc(-c2ncnc3cc(C4=CCN(C(=O)C5CC5)CC4)sc23)cc1 [P-0572, N-[4-[6-[1-(cyclopropanecarbonyl)-3,6-dihydro-2H-pyridin-4-yl]thieno[3,2-d]pyrimidin-4-yl]phenyl]methanesulfonamide] | 0.0001 to 1 µM | 0.0001 to 1 µM |
| COc1cc2ncnc(-c3ccc(NS(C)(=O)=O)cc3F)c2cc1OC [P-0271, N-[4-(6,7-dimethoxyquinazolin-4-yl)-3-fluoro-phenyl]methanesulfonamide] | 1 to 10 µM | 0.0001 to 1 µM |
| COc1ccc([C@@H](C)NC(=O)N2CCN(c3ncnc4[nH]c(-c5ccc(Cl)cc5)cc34)C[C@H]2C)cc1 [P-0019, (2R)-4-[6-(4-chlorophenyl)-7H-pyrrolo[2,3-d]pyrimidin-4-yl]-N-[(1R)-1-(4-methoxyphenyl)ethyl]-2-methyl-piperazine-1-carboxamide] | 10 to 200 µM | 1 to 10 µM |
| Cc1cc2c(-c3ccc(NS(=O)(=O)c4ccc(F)cc4)c(F)c3)ncnc2[nH]1 [P-0346, 4-fluoro-N-[2-fluoro-4-(6-methyl-7H-pyrrolo[2,3-d]pyrimidin-4-yl)phenyl]benzenesulfonamide] | 1 to 10 µM | 1 to 10 µM |
| O=S(=O)(NC1CCN(c2ncnc3[nH]c(C4=CCCC4)cc23)CC1)c1ccc(OC(F)(F)F)cc1 [P-0669, N-[1-[6-(cyclopenten-1-yl)-7H-pyrrolo[2,3-d]pyrimidin-4-yl]-4-piperidyl]-4-(trifluoromethoxy)benzenesulfonamide] | 0.0001 to 1 µM | 0.0001 to 1 µM |
| COc1cc2ncnc(-c3ccc(NS(=O)(=O)C4CC4)cc3F)c2cc1OC [P-0270, N-[4-(6,7-dimethoxyquinazolin-4-yl)-3-fluoro-phenyl]cyclopropanesulfonamide] | 10 to 200 µM | 0.0001 to 1 µM |
| CC(=O)Nc1cccc(-c2cc3c(N4CCN(C(=O)Nc5ccc(OC(F)(F)F)cc5)CC4)ncnc3[nH]2)c1 [P-0120, 4-[6-(3-acetamidophenyl)-7H-pyrrolo[2,3-d]pyrimidin-4-yl]-N-[4-(trifluoromethoxy)phenyl]piperazine-1-carboxamide] | 0.0001 to 1 µM | 1 to 10 µM |
| Cc1cc2c(-c3ccc(NS(=O)(=O)c4ccc(Cl)s4)cc3)ncnc2[nH]1 [P-0323, 5-chloro-N-[4-(6-methyl-7H-pyrrolo[2,3-d]pyrimidin-4-yl)phenyl]thiophene-2-sulfonamide] | 1 to 10 µM | 1 to 10 µM |
| COc1cccc([C@H](C)NC(=O)N2CCN(c3ncnc4[nH]c(-c5ccc(F)cc5)cc34)C[C@H]2C)c1 [P-0028, (R)-4-[6-(4-Fluoro-phenyl)-7H-pyrrolo[2,3-d]pyrimidin-4-yl]-2-methyl-piperazine-1-carboxylic acid [(S)-1-(3-methoxy-phenyl)-ethyl]-amide] | 0.0001 to 1 µM | 0.0001 to 1 µM |
| Cn1cc(-c2cc3c(N4CCC(NS(=O)(=O)c5ccc6c(c5)CCO6)CC4)ncnc3[nH]2)cn1 [P-0457, N-[1-[6-(1-methylpyrazol-4-yl)-7H-pyrrolo[2,3-d]pyrimidin-4-yl]-4-piperidyl]-2,3-dihydrobenzofuran-5-sulfonamide] | 10 to 200 µM | 0.0001 to 1 µM |
